Source: ChEMBL document CHEMBL1201862, “PubChem BioAssay data set” (2004)
Active and inactive are the calls of the source.

What was measured:
[1] = molecular target: DNA dC->dU-editing enzyme APOBEC-3G (Homo sapiens, UniProt Q9HC16); format: functional;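 further: Dose-response counterscreen measuring inhibition of APOBEC3G DNA deaminase activity, run while confirming APOBEC3A inhibitors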
[2] = molecular target: DNA dC->dU-editing enzyme APOBEC-3A (Homo sapiens, UniProt P31941); experiment: Dose Response confirmation of small molecule APOBEC3A DNA Deaminase Inhibitors via a fluorescence-based single-stranded DNA deaminase assay. [Related pubchem assays (depositor defined):AID493011, AID493024]; format: functional
[3] = cytotoxicity in HPDE-C7 cells, cell-based, fluorescence, HTS (AID 430); format: functional; details: Homo sapiens
[4] = cytotoxicity in KRAS-transformed pancreatic duct cells, primary screen, cell-based, fluorescence, HTS (AID 431); format: functional; details: Homo sapiens;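 further: cell line used: HPDE-C7K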
[5] = molecular target: E3 ubiquitin-protein ligase Mdm2/Protein Mdm4 (Homo sapiens, UniProt O15151+Q00987); experiment: Mdm2-MdmX interaction inhibitors, dose response, luminescence detection (AID 504593); format: functional
[6] = molecular target: Large T antigen (Simian virus 40, UniProt P03070); format: functional, Betapolyomavirus macacae;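 further: Confirmatory-stage PubChem screen for compounds that inhibit SV40 T antigen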
[7] = molecular target: Alkaline phosphatase, placental type (Homo sapiens, UniProt P05187); experiment: PLAP enzyme inhibitors, confirmation, biochemical, luminescence (AID 1512); format: functional
[8] = molecular target: Envelope glycoprotein gp160 (Human immunodeficiency virus 1, UniProt Q6QLK5); experiment: inhibitors of HIV fusion peptide binding, primary screen, biochemical, uHTS, fluorescence dequenching (AID 1986)
[9] = molecular target: Genome polyprotein (dengue virus type 2, UniProt P29990); experiment: Dengue-2 NS5 methyltransferase inhibitors, primary screen, biochemical, confirmation dose response (AID 588689); format: functional
[10] = molecular target: T1, Carboxy-terminal domain RNA polymerase II polypeptide A small phosphatase 1 (Homo sapiens, UniProt Q9GZU7); experiment: inhibitors of CTDSP1, concentration-response testing, biochemical assay, absorbance-based, actives from ultra-high-throughput screening (AID 540297); format: functional
T1 sequence (Q9GZU7 whole entry): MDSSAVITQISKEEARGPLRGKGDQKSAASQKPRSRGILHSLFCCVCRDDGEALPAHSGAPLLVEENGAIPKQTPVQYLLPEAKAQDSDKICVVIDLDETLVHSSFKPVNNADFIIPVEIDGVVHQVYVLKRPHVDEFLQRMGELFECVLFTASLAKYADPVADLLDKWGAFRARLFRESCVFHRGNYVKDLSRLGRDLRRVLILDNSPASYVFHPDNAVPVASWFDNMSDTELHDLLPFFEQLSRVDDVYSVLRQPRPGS

[11] = molecular target: CAAX prenyl protease 2 (Saccharomyces cerevisiae S288c, UniProt Q03530); format: biochemical
[12] = molecular target: T2, Aminopeptidase N (Plasmodium falciparum FcB1/Columbia, UniProt O96935); experiment: P. falciparum M1AAP inhibitors, biochemical, fluorogenic H-Leu-NHMec substrate, 1536-well (AID 1445); parameters: species or system Plasmodium falciparum 3D7, 3D7
T2 sequence (O96935 whole entry): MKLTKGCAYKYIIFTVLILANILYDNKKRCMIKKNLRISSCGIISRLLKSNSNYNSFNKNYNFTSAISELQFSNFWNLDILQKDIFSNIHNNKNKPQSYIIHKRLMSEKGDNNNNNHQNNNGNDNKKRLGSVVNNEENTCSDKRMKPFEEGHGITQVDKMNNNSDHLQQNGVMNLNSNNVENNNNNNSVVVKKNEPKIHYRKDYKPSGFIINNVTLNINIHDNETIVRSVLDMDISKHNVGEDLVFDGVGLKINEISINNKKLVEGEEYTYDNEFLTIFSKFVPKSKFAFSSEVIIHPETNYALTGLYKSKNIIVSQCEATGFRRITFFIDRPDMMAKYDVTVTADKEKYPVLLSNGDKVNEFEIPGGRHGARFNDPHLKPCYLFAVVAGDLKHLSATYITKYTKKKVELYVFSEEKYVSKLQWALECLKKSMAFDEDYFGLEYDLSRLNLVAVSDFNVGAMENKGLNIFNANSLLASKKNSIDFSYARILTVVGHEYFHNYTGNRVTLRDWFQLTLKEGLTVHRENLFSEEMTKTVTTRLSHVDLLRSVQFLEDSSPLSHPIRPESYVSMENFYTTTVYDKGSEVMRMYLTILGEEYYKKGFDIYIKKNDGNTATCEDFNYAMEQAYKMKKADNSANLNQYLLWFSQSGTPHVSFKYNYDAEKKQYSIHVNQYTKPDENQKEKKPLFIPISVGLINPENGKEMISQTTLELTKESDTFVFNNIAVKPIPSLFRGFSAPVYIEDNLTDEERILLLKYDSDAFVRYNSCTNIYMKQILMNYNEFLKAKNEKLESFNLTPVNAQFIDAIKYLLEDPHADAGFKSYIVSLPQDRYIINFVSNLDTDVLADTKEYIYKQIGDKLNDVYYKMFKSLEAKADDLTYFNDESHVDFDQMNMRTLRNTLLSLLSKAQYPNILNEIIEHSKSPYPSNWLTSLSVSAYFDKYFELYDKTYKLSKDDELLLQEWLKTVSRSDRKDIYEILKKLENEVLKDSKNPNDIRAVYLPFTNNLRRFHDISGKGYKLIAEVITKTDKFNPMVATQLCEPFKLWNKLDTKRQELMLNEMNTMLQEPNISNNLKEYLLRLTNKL

[13] = molecular target: T3, Probable nicotinate-nucleotide adenylyltransferase (Staphylococcus aureus (strain N315), UniProt P65502); format: functional, Staphylococcus aureus subsp. aureus N315; details: read-out: IC50_Mean;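 on IC50 Mean: confirmatory dose-response retesting of NadD inhibitor hits first found in an ultra-high-throughput screen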
[14] = molecular target: T3, Probable nicotinate-nucleotide adenylyltransferase; format: functional, Staphylococcus aureus subsp. aureus N315
[15] = molecular target: Glyceraldehyde-3-phosphate dehydrogenase (Homo sapiens, UniProt P04406)
[16] = molecular target: T4, Alkaline phosphatase, tissue-nonspecific isozyme (Homo sapiens, UniProt P05186); experiment: human TNAP enzyme inhibitors, SAR follow-up, biochemical, luminescent, dose response (AID 1056)
T4 sequence (P05186 whole entry): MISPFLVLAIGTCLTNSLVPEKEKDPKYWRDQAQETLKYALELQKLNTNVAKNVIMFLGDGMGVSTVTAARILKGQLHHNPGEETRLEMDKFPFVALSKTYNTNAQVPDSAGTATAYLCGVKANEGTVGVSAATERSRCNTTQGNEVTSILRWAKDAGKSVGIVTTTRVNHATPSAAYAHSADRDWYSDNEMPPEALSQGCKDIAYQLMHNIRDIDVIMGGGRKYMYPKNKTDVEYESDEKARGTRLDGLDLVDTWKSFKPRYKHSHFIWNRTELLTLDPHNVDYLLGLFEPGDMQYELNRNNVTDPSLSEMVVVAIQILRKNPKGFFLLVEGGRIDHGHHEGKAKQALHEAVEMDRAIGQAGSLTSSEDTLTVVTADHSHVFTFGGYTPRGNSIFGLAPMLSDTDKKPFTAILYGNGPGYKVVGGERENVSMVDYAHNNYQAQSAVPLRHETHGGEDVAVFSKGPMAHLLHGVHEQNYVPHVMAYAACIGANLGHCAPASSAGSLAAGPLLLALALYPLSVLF

[17] = molecular target: Luciferin 4-monooxygenase (Photinus pyralis, UniProt P08659); experiment: Counter Screen for Luciferase-based Assay Positives. [Related pubchem assays: 620, 618, 411 ]
[18] = inhibitors of SNCA 5'UTR-driven reporter translation, confirmation, H4 neuroglioma cells, luminescence (AID 1988); format: functional, cell-based
[19] = molecular target: T5, Heat shock factor protein 1 (Mus musculus, UniProt P38532); experiment: inhibition of MG132-induced HSE-luciferase signal, confirmation, cell-based, NIH3T3, luminescence, dose retest (AID 2382); format: functional;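 further: NIH3T3 fibroblasts with HSF1-driven luciferase reporter stressed by proteasome inhibitor MG132; luminescence from HSF1-driven luciferase expression after 8 hours of MG132 stress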
T5 sequence (P38532 whole entry): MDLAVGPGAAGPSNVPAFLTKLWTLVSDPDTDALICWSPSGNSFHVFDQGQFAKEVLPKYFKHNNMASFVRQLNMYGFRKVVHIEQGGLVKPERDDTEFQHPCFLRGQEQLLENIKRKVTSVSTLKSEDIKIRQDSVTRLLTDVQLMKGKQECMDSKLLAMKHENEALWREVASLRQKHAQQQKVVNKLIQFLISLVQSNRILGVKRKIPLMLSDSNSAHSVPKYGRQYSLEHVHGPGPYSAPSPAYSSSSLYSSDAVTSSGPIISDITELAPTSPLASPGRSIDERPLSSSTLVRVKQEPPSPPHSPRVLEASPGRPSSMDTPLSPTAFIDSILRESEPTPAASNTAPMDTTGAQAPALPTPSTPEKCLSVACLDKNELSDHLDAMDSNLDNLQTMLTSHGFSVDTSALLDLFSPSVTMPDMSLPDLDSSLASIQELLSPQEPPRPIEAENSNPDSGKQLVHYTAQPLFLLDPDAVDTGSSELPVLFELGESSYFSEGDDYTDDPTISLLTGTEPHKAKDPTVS

[20] = tested on: HT-1080; experiment: cytotoxicity in HT1080 fibrosarcoma cells, cell-based, fluorescence readout (AID 620); format: functional; details: Homo sapiens
[21] = inhibitors of firefly luciferase expression or activity, dose response, H4 neuroglioma cells, luminescence (AID 1990); format: functional, cell-based
[22] = luciferase reporter signal reduction – luminescence, H4-C neuroglioblastoma cells, dose response (AID 2458); format: functional, cell-based;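 further: H4 neuroglioblastoma cells stably carrying a luciferase reporter gene fusion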
[23] = Luminescence Cell-Based Dose Response HTS to Identify Inhibitors of 5'UTR Stem-Loop Driven Prion Protein mRNA Translation in H4 Neuroglioblastoma Cells. [Related pubchem assays: 1827 (Project Summary), 1813 (Primary HTS)]; format: functional
[24] = inhibitors of SNCA 5'UTR-driven translation, confirmation, luminescence, H4 neuroglioblastoma cells, dose confirmation (AID 2454); format: functional, cell-based;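 further: H4 neuroglioblastoma cells carrying an alpha-synuclein 5'UTR luciferase reporter; potency for inhibition of the luciferase signal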
[25] = cells; format: functional, cell-based
[26] = cytotoxicity in HEK-293T cells, dose response, cytotoxicity control for TCR NF-kB inhibitor project, luminescence, T-cell screen hits (AID 489026); format: functional, cell-based;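 further: cells exposed to compound about 14 hours before the viability readout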
[27] = molecular target: T6, Lytic switch protein BZLF1 (Epstein-Barr virus (strain B95-8) (HHV-4) (Human herpesvirus 4), UniProt P03206); experiment: EBV ZTA inhibitors, dose response, counter-screen for EBNA-1 inhibitor project, biochemical, fluorescence polarization, Epstein-Barr virus, 1536-well (AID 2377); parameters: species or system human gammaherpesvirus 4;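 further: fluorescence polarization of Cy5-labelled ZRE DNA probe bound by purified Zta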
T6 sequence (P03206 whole entry): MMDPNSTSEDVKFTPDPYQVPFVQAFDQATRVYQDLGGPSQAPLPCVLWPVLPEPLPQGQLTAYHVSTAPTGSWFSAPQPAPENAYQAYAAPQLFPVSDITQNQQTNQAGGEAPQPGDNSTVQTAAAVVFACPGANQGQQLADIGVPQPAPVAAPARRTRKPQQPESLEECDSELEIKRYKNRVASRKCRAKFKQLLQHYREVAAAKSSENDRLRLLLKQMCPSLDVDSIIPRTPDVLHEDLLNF

[28] = molecular target: DNA damage-inducible transcript 3 protein (Mus musculus, UniProt P35639); format: functional, Cricetulus griseus
[29] = molecular target: T7, Epstein-Barr nuclear antigen 1 (Epstein-Barr virus (strain B95-8) (HHV-4) (Human herpesvirus 4), UniProt P03211); experiment: EBNA-1 inhibitors, dose response, biochemical, fluorescence polarization, 1536-well (AID 2381); parameters: species or system human gammaherpesvirus 4;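 further: fluorescence polarization of a Cy5 DNA probe bound by EBNA-1 protein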
T7 sequence (P03211 whole entry): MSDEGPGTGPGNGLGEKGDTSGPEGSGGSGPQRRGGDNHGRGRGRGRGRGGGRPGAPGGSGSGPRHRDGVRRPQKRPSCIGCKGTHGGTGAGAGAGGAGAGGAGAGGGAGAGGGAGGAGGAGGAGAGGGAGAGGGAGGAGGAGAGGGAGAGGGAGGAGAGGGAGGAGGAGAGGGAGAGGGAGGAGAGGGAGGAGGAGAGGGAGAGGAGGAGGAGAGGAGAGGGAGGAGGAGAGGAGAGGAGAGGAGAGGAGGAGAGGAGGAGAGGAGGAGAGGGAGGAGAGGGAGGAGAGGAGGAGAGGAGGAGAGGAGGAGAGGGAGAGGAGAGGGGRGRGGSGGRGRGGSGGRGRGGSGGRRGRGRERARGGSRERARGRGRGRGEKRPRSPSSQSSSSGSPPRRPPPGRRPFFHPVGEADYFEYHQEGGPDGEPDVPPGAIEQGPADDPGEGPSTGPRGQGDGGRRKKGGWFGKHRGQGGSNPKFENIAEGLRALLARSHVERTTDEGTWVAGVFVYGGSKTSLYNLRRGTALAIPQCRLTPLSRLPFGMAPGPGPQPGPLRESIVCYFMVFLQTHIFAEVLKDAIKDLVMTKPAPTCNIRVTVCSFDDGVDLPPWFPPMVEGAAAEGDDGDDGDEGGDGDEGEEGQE

[30] = molecular target: Cytochrome P450 2C19 (Homo sapiens, UniProt P33261); experiment: Cytochrome panel assay with activity outcomes. Panel member name: p450-cyp2c19 Compounds with AC50 equal or less than 10 uM are considered active; format: functional; details: read-out: AC50

Chain of Genome polyprotein (P29990 2492-3391 limits assumed): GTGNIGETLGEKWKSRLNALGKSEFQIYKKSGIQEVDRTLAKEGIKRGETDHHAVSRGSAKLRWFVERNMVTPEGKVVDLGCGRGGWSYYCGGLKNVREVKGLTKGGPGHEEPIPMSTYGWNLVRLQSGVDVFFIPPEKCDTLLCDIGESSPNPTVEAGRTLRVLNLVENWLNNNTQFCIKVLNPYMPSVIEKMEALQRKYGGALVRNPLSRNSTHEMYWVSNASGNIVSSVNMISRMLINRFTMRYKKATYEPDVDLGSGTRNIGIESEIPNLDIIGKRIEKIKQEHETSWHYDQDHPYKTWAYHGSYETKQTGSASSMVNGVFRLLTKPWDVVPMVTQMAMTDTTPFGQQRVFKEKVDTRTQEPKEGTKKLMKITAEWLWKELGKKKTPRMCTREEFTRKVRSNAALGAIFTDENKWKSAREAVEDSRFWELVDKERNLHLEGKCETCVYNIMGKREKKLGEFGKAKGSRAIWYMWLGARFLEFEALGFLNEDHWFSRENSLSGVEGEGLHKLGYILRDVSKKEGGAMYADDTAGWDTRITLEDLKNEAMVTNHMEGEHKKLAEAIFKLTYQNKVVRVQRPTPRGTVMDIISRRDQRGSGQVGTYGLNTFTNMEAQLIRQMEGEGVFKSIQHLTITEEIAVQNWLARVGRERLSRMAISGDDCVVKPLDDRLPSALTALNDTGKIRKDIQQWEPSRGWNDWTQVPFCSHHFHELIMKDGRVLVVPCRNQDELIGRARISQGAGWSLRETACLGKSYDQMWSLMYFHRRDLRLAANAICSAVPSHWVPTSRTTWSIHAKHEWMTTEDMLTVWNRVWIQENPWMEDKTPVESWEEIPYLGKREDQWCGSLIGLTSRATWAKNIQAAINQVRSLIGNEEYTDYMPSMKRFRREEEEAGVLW
Chain of Envelope glycoprotein gp160 (Q6QLK5 whole entry, the tested form may be a part): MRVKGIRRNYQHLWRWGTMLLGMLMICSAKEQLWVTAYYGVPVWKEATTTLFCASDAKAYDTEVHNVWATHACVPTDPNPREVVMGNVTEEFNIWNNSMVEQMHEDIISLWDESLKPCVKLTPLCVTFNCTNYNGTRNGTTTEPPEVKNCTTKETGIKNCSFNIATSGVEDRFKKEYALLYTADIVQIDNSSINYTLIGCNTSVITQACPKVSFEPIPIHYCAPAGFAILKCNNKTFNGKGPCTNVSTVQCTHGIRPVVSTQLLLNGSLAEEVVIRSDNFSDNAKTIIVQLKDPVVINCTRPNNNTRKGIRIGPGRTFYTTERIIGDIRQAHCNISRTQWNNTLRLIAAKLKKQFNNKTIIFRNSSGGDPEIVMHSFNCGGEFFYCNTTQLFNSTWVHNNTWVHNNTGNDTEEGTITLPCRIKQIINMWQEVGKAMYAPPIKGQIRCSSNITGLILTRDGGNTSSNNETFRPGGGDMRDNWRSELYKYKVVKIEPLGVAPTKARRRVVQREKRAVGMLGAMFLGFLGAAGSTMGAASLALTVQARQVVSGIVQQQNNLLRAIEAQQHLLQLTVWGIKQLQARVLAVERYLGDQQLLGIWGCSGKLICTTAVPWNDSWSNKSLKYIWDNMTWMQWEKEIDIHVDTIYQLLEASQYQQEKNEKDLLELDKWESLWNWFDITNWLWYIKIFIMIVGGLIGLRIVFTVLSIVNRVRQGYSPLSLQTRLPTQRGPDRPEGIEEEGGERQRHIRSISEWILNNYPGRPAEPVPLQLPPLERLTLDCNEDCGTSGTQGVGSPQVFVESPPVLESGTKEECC
Chain of DNA dC->dU-editing enzyme APOBEC-3A (P31941 whole entry): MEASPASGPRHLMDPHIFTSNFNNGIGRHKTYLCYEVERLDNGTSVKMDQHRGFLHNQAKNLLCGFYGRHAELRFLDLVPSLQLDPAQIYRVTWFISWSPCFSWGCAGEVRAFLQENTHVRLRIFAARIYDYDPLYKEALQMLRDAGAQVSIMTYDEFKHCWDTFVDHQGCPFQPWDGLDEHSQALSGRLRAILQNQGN
Chain of E3 ubiquitin-protein ligase Mdm2/Protein Mdm4 (Q00987 whole entry): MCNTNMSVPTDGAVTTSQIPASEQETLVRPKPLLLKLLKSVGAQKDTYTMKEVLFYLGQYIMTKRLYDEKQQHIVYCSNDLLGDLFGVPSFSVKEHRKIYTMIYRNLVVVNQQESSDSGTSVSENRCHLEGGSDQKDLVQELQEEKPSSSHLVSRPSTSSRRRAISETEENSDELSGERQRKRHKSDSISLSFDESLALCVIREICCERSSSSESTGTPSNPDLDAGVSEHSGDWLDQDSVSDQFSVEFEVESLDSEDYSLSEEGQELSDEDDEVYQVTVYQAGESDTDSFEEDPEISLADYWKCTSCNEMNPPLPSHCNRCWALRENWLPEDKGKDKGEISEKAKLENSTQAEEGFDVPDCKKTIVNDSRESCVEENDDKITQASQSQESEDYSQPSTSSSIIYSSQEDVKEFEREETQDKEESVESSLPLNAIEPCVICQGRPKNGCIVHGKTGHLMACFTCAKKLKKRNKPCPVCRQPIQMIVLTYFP
Chain of E3 ubiquitin-protein ligase Mdm2/Protein Mdm4 (O15151 whole entry): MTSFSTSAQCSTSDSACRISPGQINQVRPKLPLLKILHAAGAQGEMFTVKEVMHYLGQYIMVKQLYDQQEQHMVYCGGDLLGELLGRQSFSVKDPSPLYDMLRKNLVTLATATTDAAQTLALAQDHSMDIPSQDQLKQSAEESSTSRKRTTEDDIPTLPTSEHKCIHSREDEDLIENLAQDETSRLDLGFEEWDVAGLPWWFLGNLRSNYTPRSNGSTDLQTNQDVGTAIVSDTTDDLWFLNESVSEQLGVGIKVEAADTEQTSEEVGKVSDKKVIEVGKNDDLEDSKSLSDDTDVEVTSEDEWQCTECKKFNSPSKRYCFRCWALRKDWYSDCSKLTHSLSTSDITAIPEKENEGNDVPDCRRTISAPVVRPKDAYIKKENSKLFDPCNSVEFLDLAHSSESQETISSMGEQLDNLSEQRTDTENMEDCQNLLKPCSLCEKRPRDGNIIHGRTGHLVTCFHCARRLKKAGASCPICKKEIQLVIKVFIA
Chain of DNA dC->dU-editing enzyme APOBEC-3G (Q9HC16 whole entry): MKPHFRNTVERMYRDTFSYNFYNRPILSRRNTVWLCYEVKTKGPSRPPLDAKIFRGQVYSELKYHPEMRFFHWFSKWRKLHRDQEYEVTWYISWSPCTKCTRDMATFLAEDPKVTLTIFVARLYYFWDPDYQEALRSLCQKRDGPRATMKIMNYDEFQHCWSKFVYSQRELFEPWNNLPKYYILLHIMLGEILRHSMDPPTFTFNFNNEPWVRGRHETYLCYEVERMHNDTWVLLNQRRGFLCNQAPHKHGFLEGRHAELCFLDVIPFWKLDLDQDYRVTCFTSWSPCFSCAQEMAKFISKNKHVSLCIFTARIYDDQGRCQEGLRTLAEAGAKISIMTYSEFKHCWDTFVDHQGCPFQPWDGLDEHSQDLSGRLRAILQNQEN
T3 sequence (P65502 whole entry): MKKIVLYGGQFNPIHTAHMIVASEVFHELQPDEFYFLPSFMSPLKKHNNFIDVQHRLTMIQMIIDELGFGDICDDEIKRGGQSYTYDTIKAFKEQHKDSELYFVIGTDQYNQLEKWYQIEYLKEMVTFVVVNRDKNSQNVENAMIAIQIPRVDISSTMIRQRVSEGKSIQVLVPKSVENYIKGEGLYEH
Chain of Alkaline phosphatase, placental type (P05187 whole entry, the tested form may be a part): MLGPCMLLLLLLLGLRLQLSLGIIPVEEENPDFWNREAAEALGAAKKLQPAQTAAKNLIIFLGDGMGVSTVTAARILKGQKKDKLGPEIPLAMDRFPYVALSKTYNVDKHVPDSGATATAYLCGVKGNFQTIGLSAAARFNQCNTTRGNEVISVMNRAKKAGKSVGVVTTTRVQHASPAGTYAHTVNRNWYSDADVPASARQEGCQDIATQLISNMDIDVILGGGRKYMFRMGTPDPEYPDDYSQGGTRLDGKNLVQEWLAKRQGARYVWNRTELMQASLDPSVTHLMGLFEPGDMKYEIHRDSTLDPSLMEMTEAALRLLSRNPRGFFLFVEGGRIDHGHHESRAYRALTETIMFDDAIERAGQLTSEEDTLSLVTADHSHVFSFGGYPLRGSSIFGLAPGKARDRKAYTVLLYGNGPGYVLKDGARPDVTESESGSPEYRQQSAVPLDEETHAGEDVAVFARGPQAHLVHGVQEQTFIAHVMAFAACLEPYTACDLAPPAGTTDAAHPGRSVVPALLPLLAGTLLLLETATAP
Chain of Luciferin 4-monooxygenase (P08659 whole entry): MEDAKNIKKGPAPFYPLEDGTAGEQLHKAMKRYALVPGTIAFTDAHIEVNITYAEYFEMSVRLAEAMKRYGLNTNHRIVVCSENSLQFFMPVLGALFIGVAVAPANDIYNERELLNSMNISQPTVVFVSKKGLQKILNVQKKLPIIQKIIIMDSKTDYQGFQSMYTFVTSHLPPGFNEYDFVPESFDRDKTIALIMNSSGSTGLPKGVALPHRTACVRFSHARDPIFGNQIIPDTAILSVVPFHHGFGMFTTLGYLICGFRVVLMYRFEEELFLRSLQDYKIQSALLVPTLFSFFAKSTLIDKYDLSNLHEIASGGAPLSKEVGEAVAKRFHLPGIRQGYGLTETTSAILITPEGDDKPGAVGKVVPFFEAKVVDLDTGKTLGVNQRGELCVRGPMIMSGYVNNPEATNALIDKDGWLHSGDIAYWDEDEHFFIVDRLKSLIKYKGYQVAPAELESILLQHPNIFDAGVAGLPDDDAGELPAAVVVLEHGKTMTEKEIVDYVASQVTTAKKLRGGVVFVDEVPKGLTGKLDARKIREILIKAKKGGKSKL
Chain of Glyceraldehyde-3-phosphate dehydrogenase (P04406 whole entry): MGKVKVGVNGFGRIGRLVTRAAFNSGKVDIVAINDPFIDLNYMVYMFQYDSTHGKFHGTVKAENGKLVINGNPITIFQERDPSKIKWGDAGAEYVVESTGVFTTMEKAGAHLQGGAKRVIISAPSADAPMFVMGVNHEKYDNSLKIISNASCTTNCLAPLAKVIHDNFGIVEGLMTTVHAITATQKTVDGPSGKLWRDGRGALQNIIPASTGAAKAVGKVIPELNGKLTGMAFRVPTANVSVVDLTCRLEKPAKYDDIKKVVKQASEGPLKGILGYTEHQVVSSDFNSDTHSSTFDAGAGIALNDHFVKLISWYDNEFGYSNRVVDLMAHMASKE

COc1ccc(C)cc1NC(=O)CCCN1C(=O)NC(C)(C)C1=O
IC50 [1]: 11.9 µM (active)
IC50 [2]: 11 µM (active)

COc1ccc2c(c1)C1(Nc3ccccc3-c3nc4ccccc4n31)C(=O)N2C (stereo unspecified)
EC50 [3]: > 20 µM (not active)
EC50 [4]: > 20 µM (not active)
IC50 [5]: 2.85 µM (active)

COCc1cc(C)nc(SCC(=O)c2ccc(O)c(O)c2)c1C#N
IC50 [6]: 3.71 µM (active)
IC50 [7]: 2.16 µM (active)

O=C(O)CCN1C(=O)/C(=C2\C(=O)N(Cc3ccc(F)cc3)c3ccccc32)SC1=S
IC50 [8]: > 99 µM (inactive)
IC50 [9]: 41.2 µM (active)
IC50 [10]: 3.03 µM (active)

Cc1ccc(C(=O)Nc2cc(Cl)ccc2-n2cncn2)o1
IC50 [1]: 20.5 µM (active)
IC50 [2]: 85 µM (active)

C[C@@]12CCC=C[C@H]1[C@H](c1ccc(/C=C/c3ccccc3)cc1F)N(Cc1ccccc1)C2=O
AC50 [11]: 45.9 µM (active)

CCc1nnc(NS(=O)(=O)c2ccc(NC(=S)NC(=O)/C=C/c3ccc(F)cc3)cc2)s1
IC50 [8]: 18.3 µM (active)
IC50 [9]: 39.3 µM (active)
IC50 [12]: 76.7 µM (active)
IC50 [13]: 45.4 µM (active)
IC50 [14]: 4.58 µM (active)

Cc1n[nH]c2c1C(=O)CC(C)(C)C2
IC50 [15]: > 100 µM (not active)
IC50 [16]: 19.9 µM (active)
IC50 [7]: > 100 µM (inactive)

COCCn1c(C)cc(C2=NN=C(Nc3ccccc3F)SC2)c1C
EC50 [17]: 2.67 µM (active)
EC50 [18]: < 0.1 µM (active)
EC50 [19]: < 0.16 µM (active)
EC50 [20]: > 50 µM (not active)
EC50 [21]: 8.18 µM (active)
EC50 [22]: 1.3 µM (active)
EC50 [23]: < 0.1 µM (active)
EC50 [24]: 1.69 µM (active)
EC50 [25]: > 12 µM (not active)
IC50 [26]: > 80 µM (inactive)
IC50 [5]: 1.33 µM (active)

Cc1cccc(OCC(=O)N/N=C\C=C\c2ccc3c(c2)OCO3)c1C
IC50 [27]: > 111 µM (not active)
Absolute IC50 (CHOP) [28]: 10 µM
IC50 [29]: 5.84 µM (active)
AC50 [30]: 10 µM (inconclusive)
